This note sets out measurements from patent US5536717A, “7-[4-(substituted amino)-2-butynl]benzo[B]pyrrolo[3,2,1-JK]-[1,4]benzodiazepin-6-ones” (Hoechst Marion Roussel Inc., priority 1993, dated 1996).

One experiment deals with mice. The experiment can be described thus: 2-phenyl-1,4-benzoquinone-induced writhing test in mice. The format is in vivo. Particulars: phenylquinone writhing. From the text:
The compounds of Formula I of the present invention are also useful as analgesic agents due to their ability to alleviate pain in mammals.

The next experiment relates to serotonergic system. The experiment can be described thus: L-5-hydroxytryptophan potentiation in rats. The format is in vivo. Particulars: male Wistar rats, i.p.; for % Potentiation: @ 20 mg/kg, normalized relative to vehicle control; for ED50: Rattus norvegicus, ip, forelimb clonus after pargyline + 5-HTP. The method, then:
According to the monoamine hypothesis of depression, compounds exert antidepressant activity because they are capable of enhancing central noradrenergic and/or serotonergic function (Shtee and […] 1971; Douglas 1975; Lingjaerde 1973). This procedure is used to evaluate enhanced activity of the serotonergic system. Groups of six male Wistar rats (150-200 g) are used in this test procedure. […] Thirty minutes before the 5-HTP administration, drugs are prepared and dosed using distilled water and, if insoluble, a suitable surfactant is added. Control groups receive vehicle. Drugs are routinely administered i.p. at a dosage volume of 10 ml/kg. L-5-hydroxytrpytophan (Calbiochem-Behring Corp.) is prepared at 1.0 mg/kg in distilled water and is administered i.p. in volumes proportional to 10 ml/kg. Fifteen minutes post-5-HTP treatment, each animal is observed for 10 seconds. Animal observations and 5-HTP administration are done in the presence of "white noise". In a dose range, drugs are administered in a randomized manner. […] Potentiation is expressed as normalized percent potentiation relative to vehicle control. […] An ED50 and 95% confidence limit are determined by Litchfield and Wilcoxon.

The structures appear in SMILES notation.

Regarding `O=C1c2cccc3c2N(CC3)c2ccc(Br)cc2N1CC#CCN1CCC(n2c(=O)[nH]c3ccccc32)CC1` [9-Bromo-1,2-dihydro-7-[4-[4-(2-oxo-1H-benzimidazol-3-yl)-1-piperidinyl-2-butynyl]benzo[b]pyrrolo[3,2,1-jk][1,4]benzodiazepin-6-one monohydrate], the “Inhibition at 20 mg/kg, s.c.” value with mice is listed as 42%.

Turning to `CN1CCN(CC#CCN2C(=O)c3cccc4c3N(CC4)c3ccc(Br)cc32)CC1.O=C(O)/C=C/C(=O)O` [9-Bromo-1,2-dihydro-7-[4-(4-methyl-1-piperazinyl)-2-butynyl]benzo[b]pyrrolo[3,2,1-jk][1,4]benzodiazepin-6-one fumarate], in the experiment with serotonergic system, the “% Potentiation” value came to 50%. For the compound `CC1CCN(CC#CCN2C(=O)c3cccc4c3N(CC4)c3ccc(Br)cc32)CC1` [9-Bromo-1,2-dihydro-7-[4-(4-methyl-1-piperidinyl)-2-butynyl]benzo[b]pyrrolo[3,2,1-jk][1,4]benzodiazepin-6-one hemifumarate], the “Inhibition at 20 mg/kg, s.c.” value with mice is on record as 41%. In the case of `COc1ccccc1N1CCN(CC#CCN2C(=O)c3cccc4c3N(CC4)c3ccc(Br)cc32)CC1` [9-Bromo-1,2-dihydro-7-[4-[4-(2-methoxyphenyl)-1-piperazinyl]-2-butynyl]-2-butynyl]benzo[b]pyrrolo[3,2,1-jk][1,4]benzodiazepin-6-one], in the experiment with serotonergic system, the “% Potentiation” value is 50%. With `CN(C)CCC=C1c2ccccc2CCc2ccccc21` [Amitriptyline, reference compound], the ED50 in the experiment with serotonergic system stood at 7.1 mg/kg. `CN1CCN(CC#CCN2C(=O)c3cccc4c3N(CC4)c3ccccc32)CC1.O=C(O)/C=C/C(=O)O` [1,2-Dihydro-7-[4-(4-methyl-1-piperazinyl)-2-butynyl]benzo[b]pyrrolo[3,2,1-jk][1,4]benzodiazepin-6-one fumarate]: the “Inhibition at 20 mg/kg, s.c.” value with mice worked out at 44%. As for `CC1CCN(CC#CCN2C(=O)c3cccc4c3N(CC4)c3ccccc32)CC1` [1,2-Dihydro-7-[4-(4-methyl-1-piperidinyl)-2-butynyl]benzo[b]pyrrolo[3,2,1-jk][1,4]benzodiazepin-6-one hemifumarate], the ED50 with serotonergic system stood at 25.3 mg/kg. As to `CCC(=O)O[C@](Cc1ccccc1)(c1ccccc1)[C@H](C)CN(C)C` [Propoxyphene, reference compound], the ED50 with mice (Mus musculus, sc, read-out: ED50 (writhing inhibition)) was found to be 3.9 mg/kg.
